We go through 1 molecule from patent publication US9968582B2, “Use of a benzoate containing composition in urea cycle disorders and neurodegenerative disorders” (Rush University Medical Center, priority 2014, dated 2018).

What all share (type): in vivo
Data set [1] deals with proteolipid protein (PLP). Nature of the data set: Myelin gene mRNA expression in spinal cord of EAE mice: PLP. Conditions: FIG. 5C-E. As to the method:
Total RNA was isolated from splenic T cells and spinal cord by using the RNeasy mini kit (Qiagen, Valencia, Calif.) and from spleen and cerebellum by using the Ultraspec-II RNA reagent (Biotecx laboratories, Inc, Houston, Tex.) following manufacturer's protocol. To remove any contaminating genomic DNA, total RNA was digested with DNase. Semi-quantitative RT-PCR was carried out using a RT-PCR kit from Clonetech (Mountain View, Calif.). Briefly, 1 μg of total RNA was reverse transcribed using oligo(dT)12-18 as primer and MMLV reverse transcriptase (Clontech) in a 20 μL reaction mixture. […]
(§1) The relative expression of each gene with respect to GAPDH was measured after scanning the bands with a Fluor Chem 8800 Imaging System (Alpha Innotech, San Leandro, Calif.).
Real-time PCR analysis was performed using the ABI-Prism7700 sequence detection system (Applied Biosystems, Foster City, Calif.). […] Data were processed by the ABI Sequence Detection System 1.6 software and analyzed by ANOVA.
Demyelination is the most important pathological feature in MS, which is also modeled in EAE animals. […] To confirm this finding, the inventor monitored the expression of […] myelin genes, myelin basic protein (MBP) and proteolipid protein (PLP), and observed a marked loss of mRNA expression of these genes in the spinal cord of untreated EAE mice compared to control mice (FIG. 5C-E).

Data set [2] has as its system blood-brain barrier and blood-spinal cord barrier. Nature of the data set: Integrity of BBB and BSB, infrared dye (Alexa-680) entry into CNS of EAE mice. From the text:
BBB and BSB are membranic structures that act primarily to protect the brain and the spinal cord, respectively from chemicals in the blood, while still allowing some essential molecules to enter. It is known that during active MS and EAE, BBB and BSB break down in a section of the brain and spinal cord, respectively due to widespread inflammation thereby allowing different blood molecules and toxins enter into the CNS. Therefore, the inventor investigated if GTB treatment modulated the integrity of BBB and BSB. The inventor injected an infrared dye (Alexa-680) via tail-vein and 2 h after the injection, live mice were scanned in an Odyssey infra-red scanner. As evidenced from FIG. 3A (first lane), infra-red signals were not visible on areas over the brain and the spinal cord in control HBSS-injected mice. […] In FIG. 3C, the top row relates to the frontal cortex, the middle row relates to the midbrain, and the last row relates to the cerebellum. In FIG. 3D, the first column relates to the control, the second column relates to EAE, the third column relates to EAE+GTB, the fourth column relates to EAE+Vehicle, and the y-axis is density of infrared signal.

For another data set, the system named is TGF-β. Nature of the data set: TGF-β ELISA in serum of EAE mice. To be noted: GTB from 8 dpt, sacrificed 16 dpt; FIG. 6. The source says:
Production of TGF-β in culture supernatant was monitored by ELISA using assay kit from eBioscience (San Diego, Calif.).
Because TGF-β is known to protect mice from EAE, the inventor examined the level of TGF-β in serum of GTB-treated and untreated EAE mice by ELISA. EAE mice receiving GTB or vehicle from 8 dpt were sacrificed on 16 dpt followed by analysis of TGF-β in serum. The inventor observed marked decrease in TGF-β in the serum of EAE mice as compared to control mice (FIG. 6).
(In an ELISA, binding on a coated surface is turned into a signal by an enzyme label.)

The next data set concerns IL-1β. Description: Expression of IL-1β in spinal cord of EAE mice (RT-PCR). Conditions: FIG. 4D-F. As to the method:
Total RNA was isolated from splenic T cells and spinal cord by using the RNeasy mini kit (Qiagen, Valencia, Calif.) and from spleen and cerebellum by using the Ultraspec-II RNA reagent (Biotecx laboratories, Inc, Houston, Tex.) following manufacturer's protocol. To remove any contaminating genomic DNA, total RNA was digested with DNase. Semi-quantitative RT-PCR was carried out using a RT-PCR kit from Clonetech (Mountain View, Calif.). Briefly, 1 μg of total RNA was reverse transcribed using oligo(dT)12-18 as primer and MMLV reverse transcriptase (Clontech) in a 20 μL reaction mixture. The resulting cDNA was appropriately-diluted, and diluted cDNA was amplified using Titanium Taq DNA polymerase and following primers. Amplified products were electrophoresed on a 1.8% agarose gels and visualized by ethidium bromide staining.
as §1
Real-time PCR analysis was performed using the ABI-Prism7700 sequence detection system (Applied Biosystems, Foster City, Calif.). […] Data were processed by the ABI Sequence Detection System 1.6 software and analyzed by ANOVA. […]

The subject of another data set is male C57/BL6 mice. Description: Chronic EAE (MOG35-55), clinical symptoms. Conditions: chronic model, FIG. 1C. As to the method:
C57BL/6 mice were immunized with 100 μg of MOG35-55 as described above. Mice also received two doses of pertussis toxin (150 ng/mouse) on 0 and 2 dpi.
GTB was mixed in 0.5% methylcellulose (MC) and EAE mice were gavaged 100 μL GTB-mixed MC once daily using gavage needle. Therefore, control EAE mice received only MC as vehicle.
While female SJL/J mice are used to induce RR-EAE, chronic form of EAE is modeled in male C57/BL6 mice upon immunization with MOG35-55. Therefore, the inventor examined the efficacy of GTB in suppressing the disease process of chronic EAE.

The next data set concerns spinal cord of EAE mice. Nature of the data set: Luxol fast blue staining for myelin, spinal cord of EAE mice. To be noted: FIG. 5A-B. As to the method:
Sections were stained with Luxol fast blue for myelin as described earlier. Slides were assessed in a blinded fashion for demyelination by three examiners using the following scale: 0, normal white matter; 1, rare foci; 2, a few areas of demyelination; and 3, large areas of demyelination. At least six serial sections of each spinal cord from each of five mice per group were scored and statistically analyzed by ANOVA.
Demyelination is the most important pathological feature in MS, which is also modeled in EAE animals. Therefore, the inventor examined whether GTB protected EAE mice from demyelination. The inventor stained spinal cord sections by luxol fast blue (LFB) for myelin and observed widespread demyelination zones in the white matter (FIG. 5A-B). […] In contrast, vehicle was unable to restore myelin level in spinal cord of EAE mice (FIG. 5A-B). To confirm this finding, the inventor monitored the expression of […] myelin genes, myelin basic protein (MBP) and proteolipid protein (PLP), and observed a marked loss of mRNA expression of these genes in the spinal cord of untreated EAE mice compared to control mice (FIG. 5C-E).

Data set [3] is described as follows: Observation of drug related side effects in mice. Conditions: any of the mice used during the course of the study.
In the next data set the test system is encephalitogenic T cells. Nature of the data set: Generation of encephalitogenic T cells in GTB-treated donor mice, adoptive transfer. Conditions: donor mice treated with GTB 50 mg/kg body wt/d orally from day of MBP immunization; vs untreated or vehicle-treated donors; FIG. 2.
A further data set concerns female SJL/J mice. Nature of the data set: Adoptively-transferred RR-EAE, clinical symptoms. Conditions: for clinical symptoms (mean clinical score): FIG. 1A.

Consider `O=C(OCC(COC(=O)c1ccccc1)OC(=O)c1ccccc1)c1ccccc1` [GTB, glyceryl tribenzoate], for which the “PLP mRNA expression in the spinal cord” value in data set [1] was “significant restoration of myelin gene mRNA expression”. In addition, the “entry of infra-red dye into the CNS, live mice” value in [2] (scan 2 h after tail-vein injection of Alexa-680, FIG. 3A) is “strongly inhibited the entry of infra-red dye into the CNS”. In [2] (spinal cord, frontal cortex, midbrain, cerebellum, FIG. 3B-D), the “entry of infra-red dye into spinal cord and parts of the brain, dissected tissue” value is given as “markedly attenuated the entry of infra-red dye”. The TGF-β in serum result in the data set on TGF-β is recorded as “protected TGF-β”. In addition, the “expression of IL-1β in the spinal cord” value in the data set with IL-1β is reported as “dramatically reduced the expression”. Moreover, in the data set with male C57/BL6 mice, the “clinical symptoms of EAE” value is recorded as “strongly inhibited the clinical symptoms”. In addition, the “myelin level in the spinal cord (LFB)” value in the data set on spinal cord of EAE mice is recorded as “remarkably restored myelin level”. Moreover, in data set [3], the “drug related side effect (e.g. hair loss, weight loss, untoward infection)” value is listed as “did not notice any drug related side effect”. Further, the “clinical symptoms and disease severity of recipient mice” value in the data set with encephalitogenic T cells is “significantly reduced clinical symptoms and disease severity”. The “clinical symptoms (mean clinical score)” value in the data set with female SJL/J mice (GTB 25 mg/kg body wt/d by gavage once daily from 8 dpt) is reported as “significantly inhibited clinical symptoms”; in the data set with female SJL/J mice (GTB 50 mg/kg body wt/d by gavage from 8 dpt, acute and chronic phases), “dramatic inhibition of clinical symptoms”; in the data set with female SJL/J mice (GTB 100 mg/kg body wt/d by gavage from 8 dpt), “less potent than either 50 mg/kg body wt/d”. For the same molecule, in the data set on female SJL/J mice (GTB treatment, TGF-β blocking experiment, FIG. 8), the “clinical symptoms of adoptively-transferred RR-EAE” value was “ameliorated clinical symptoms”. In addition, in the data set with female SJL/J mice (dose-dependent study, oral GTB), the “dose that significantly suppressed clinical symptoms of EAE” value is at least 25 mg/kg body wt/d.
